Consider nine compounds from US6020521A, “Macrolide LHRH antagonists” (Abbott Laboratories, priority 1998, dated 2000).

One may read the Ki as the dissociation constant of the complex between target and ligand, obtained from inhibition or displacement. Read a high Ki as weaker binding.

The test concerns the target T1, LHRH rat pituitary receptor (Rattus norvegicus, UniProt P30969).
T1 construct: from tissue; host or cells: rat pituitary
T1 sequence (P30969 1-327): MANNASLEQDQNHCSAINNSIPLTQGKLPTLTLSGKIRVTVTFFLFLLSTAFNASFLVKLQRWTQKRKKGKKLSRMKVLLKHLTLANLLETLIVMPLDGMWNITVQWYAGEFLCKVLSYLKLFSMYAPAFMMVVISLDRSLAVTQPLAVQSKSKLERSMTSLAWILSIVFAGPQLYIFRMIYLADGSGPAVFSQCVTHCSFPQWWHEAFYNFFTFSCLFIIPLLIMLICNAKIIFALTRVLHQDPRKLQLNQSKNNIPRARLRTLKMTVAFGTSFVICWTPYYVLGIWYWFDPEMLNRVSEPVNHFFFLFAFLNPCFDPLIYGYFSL
In words: LHRH rat pituitary receptor binding (pKI). The settings on record: receptor binding affinity, negative logarithm of the equilibrium dissociation constants. The method, then: Representative compounds of the present invention were evaluated in in vitro tests for LHRH rat pituitary receptor binding (pKI) and for LH inhibition from rat pituitary cells for antagonist potency (pA2). The tests employed the methods detailed in F. Haviv, et al. J. Med. Chem., 32: 2340-2344 (1989). The receptor binding affinity (pKI) is the negative logarithm of the equilibrium dissociation constants.

As for `CC[C@H]1OC(=O)[C@H](C)[C@@H](OC(=O)N2C(=O)OC[C@@H]2C)[C@H](C)[C@@H](O[C@@H]2O[C@H](C)C[C@H](N(C)C3CCCCC3)[C@H]2O)[C@](C)(OC)C[C@@H](C)C(=O)[C@H](C)[C@H]2N(CCc3ccc(Cl)cc3)C(=O)O[C@]12C` [Example 26, 11-Deoxy-11-[carboxy(4-chlorophenethyl)amino]-3-O-[4-(S)-methyl-oxazolidin-2-one]carbamoyl-5-O-(3'-N-desmethyl-3'-N-cyclohexyl)desosaminyl-6-O-methyl-erythronolide A 11,12-(cyclic carbamate)], the Ki was 0.166 nM.

Compound `CC[C@H]1OC(=O)[C@H](C)[C@@H](OC(=O)N2C[C@@H](C)OC2=O)[C@H](C)[C@@H](O[C@@H]2O[C@H](C)C[C@H](N(C)CC3CC3)[C@H]2O)[C@](C)(OC)C[C@@H](C)C(=O)[C@H](C)[C@H]2N(CCc3ccc(Cl)c(Cl)c3)C(=O)O[C@]12C` [Example 39, 11-Deoxy-11-[carboxy(3,4-dichlorophenethyl)amino]-3-O-[5-(R)-methyl-oxazolidin-2-one]carbamoyl-5-O-(3'-N-desmethyl-3'-N-cyclopropylmethyl)desosaminyl-6-O-methyl-erythronolide A 11,12-(cyclic carbamate)] showed an inhibition constant Ki of 2.82 nM. Compared with the last compound, the Ki is about 17-fold higher.

The compound `CC[C@H]1OC(=O)[C@H](C)[C@@H](OC(=O)N2C(=O)OC[C@@H]2C)[C@H](C)[C@@H](O[C@@H]2O[C@H](C)C[C@H](N(C)CC3CC3)[C@H]2O)[C@](C)(OC)C[C@@H](C)C(=O)[C@H](C)[C@H]2N(CCc3ccc(F)cc3)C(=O)O[C@]12C` [Example 28, 11-Deoxy-11-[carboxy(4-fluorophenethyl)amino]-3-O-[4-(S)-methyl-oxazolidin-2-one]carbamoyl-5-O-(3'-N-desmethyl-3'-N-cyclopropylmethyl)desosaminyl-6-O-methyl-erythronolide A 11,12-(cyclic carbamate)] gave a Ki of 0.316 nM. Against the preceding compound, the Ki is about 8.9-fold lower.

In the case of `CC[C@H]1OC(=O)[C@H](C)[C@@H](OC(=O)N2C(=O)OC[C@H]2C)[C@H](C)[C@@H](O[C@@H]2O[C@H](C)C[C@H](N(C)CC3CC3)[C@H]2O)[C@](C)(OC)C[C@@H](C)C(=O)[C@H](C)[C@H]2N(CCc3ccc(Cl)c(Cl)c3)C(=O)O[C@]12C` [Example 37, 11-Deoxy-11-[carboxy(3,4-dichlorophenethyl)amino]-3-O-[4-(R)-methyl-oxazolidin-2-one]carbamoyl-5-O-(3'-N-desmethyl-3'-N-cyclopropylmethyl)desosaminyl-6-O-methyl-erythronolide A 11,12-(cyclic carbamate)], the affinity corresponds to a Ki of 5.37 nM.

Consider `CC[C@H]1OC(=O)[C@H](C)[C@@H](OC(=O)C2CCOC2)[C@H](C)[C@@H](O[C@@H]2O[C@H](C)C[C@H](N(C)C(C)C)[C@H]2O)[C@](C)(OC)C[C@@H](C)C(=O)[C@H](C)[C@H]2N(CCc3ccc(Cl)cc3)C(=O)O[C@]12C` (stereo partly drawn) [Example 9, 11-Deoxy-11-[carboxy(4-chlorophenethyl)amino]-5-O-(3'-N-desmethyl-3'-N-isopropyl)desosaminyl-3-O-(tetrahydro-3-furoyl)-6-O-methyl-erythronolide A 11 12-(cyclic carbamate)], for which the “p KI” value is reported as 7.85.

For the compound `CCC1OC(=O)C(C)C(OC(=O)C2CCOC2)C(C)C(OC2OC(C)CC(NC(C)C)C2O)C(C)(OC)CC(C)C(=O)C(C)C2N(CCc3ccc(Cl)cc3)C(=O)OC12C` (stereo not drawn) [Example 10, 11-Deoxy-11-[carboxy(4-chlorophenethyl)amino]-5-O-(3'-bis-N-desmethyl-3'-N-isopropyl)desosaminyl-3-O-(tetrahydro-3-furoyl)-6-O-methyl-erythronolide A 11,12-(cyclic carbamate)], the “p KI” value is on record as 8.09.

Take `CC[C@H]1OC(=O)[C@H](C)[C@@H](OC(=O)N2C(=O)OC[C@@H]2C)[C@H](C)[C@@H](O[C@@H]2O[C@H](C)C[C@H](N(C)C3CCCCC3)[C@H]2O)[C@](C)(OC)C[C@@H](C)C(=O)[C@H](C)[C@H]2N(CCc3ccc(Cl)c(Cl)c3)C(=O)O[C@]12C` [Example 15, 11-Deoxy-11-[carboxy(3,4-dichlorophenethyl)amino]-3-O-[4-(S)-methyl-oxazolidin-2-one]carbamoyl-5-O-(3'-N-desmethyl-3'-N-cyclohexyl)desosaminyl-6-O-methyl-erythronolide A 11,12-(cyclic carbamate)]: the affinity, expressed as Ki, was 3.89 nM. This counts as single-digit nanomolar.

As to `CC[C@H]1OC(=O)[C@H](C)[C@@H](OC(=O)N2C(=O)OC[C@@H]2C)[C@H](C)[C@@H](O[C@@H]2O[C@H](C)C[C@H](N(CC3CC3)C(C)C)[C@H]2O)[C@](C)(OC)C[C@@H](C)C(=O)[C@H](C)[C@H]2N(CCc3ccc(Cl)c(Cl)c3)C(=O)O[C@]12C` [Example 22, 11-Deoxy-11-[carboxy(3,4-dichlorophenethyl)amino]-3-O-[4-(S)-methyl-oxazolidin-2-one]carbamoyl-5-O-(3'-bis-N-desmethyl-3'-N-cyclopropylmethyl-3'-N-isopropyl)desosaminyl-6-O-methyl-erythronolide A 11,12-(cyclic carbamate)], the affinity corresponds to a Ki of 0.0741 nM.

`CC[C@H]1OC(=O)[C@H](C)[C@@H](OC(=O)N2C(=O)OC[C@@H]2C)[C@H](C)[C@@H](O[C@@H]2O[C@H](C)C[C@H](N(C)C3CCC3)[C@H]2O)[C@](C)(OC)C[C@@H](C)C(=O)[C@H](C)[C@H]2N(CCc3ccc(F)cc3)C(=O)O[C@]12C` [Example 29, 11-Deoxy-11-[carboxy(4-fluorophenethyl)amino]-3-O-[4-(S)-methyl-oxazolidin-2-one]carbamoyl-5-O-(3'-N-desmethyl-3'-N-cyclobutyl)desosaminyl-6-O-methyl-erythronolide A 11,12-(cyclic carbamate)] had a Ki of 0.105 nM.
